For data set [1], the system named is human T-cell acute lymphoblastic leukemia (T-ALL) cell line, DND-41. In words: Antitumor efficacy against advanced DND-41 tumors implanted in SCID mice. It is filed as in vivo. As to conditions: days 18, 21, 24, 27; for TFS = tumor free survivors: day 160; for T-C = tumor growth delay: median time to reach 750 mg. The procedure: This efficacy may be quantified, for example, by the log10 cell kill, which is determined according to the following formula:
log10 cell kill=T−C (days)/3.32×Td
in which T−C represents the tumor growth delay, which is the median time in days for the tumors of the treated group (T) and the tumors of the control group (C) to reach a predetermined value (1 g for example), and Td represents the time in days needed for the volume of the tumor to double in the control animals [T. H. Corbett et al., Cancer, 40: 2660-2680 (1977); F. M. Schabel et al., Cancer Drug Development, Part B, Methods in Cancer Research, 17: 3-51, New York, Academic Press Inc. (1979)]. A product is considered to be active if log10 cell kill is greater than or equal to 0.7. A product is considered to be very active if log10 cell kill is greater than 2.8.
The tumors are measured 1 to 5 times a week, depending on the tumor doubling time, until the tumor reaches approximately 2 g, or until the animal dies (if this occurs before the tumor reaches 2 g). The animals are necropsied immediately after euthanasia or death.
Tumor doubling time=3.4 days.

For data set [2] the following is noted: days 18, 21, 24, 27; for BWC = body weight change: day in parentheses in cell. The procedure:
The animals subjected to the experiment, generally mice, are subcutaneously grafted bilaterally with 30 to 60 mg of a tumor fragment on day 0. The animals bearing tumors are randomized based on their tumor size before being subjected to the various treatments and controls. Chemotherapy begins when tumors have reached a predetermined size after grafting, depending on the type of tumor, and the animals are observed every day. […] The groups are then weighed once or twice a week until the end of the trial.
The selected tumor model was a transplantable human T-cell acute lymphoblastic leukemia (T-ALL) cell line, DND-41, implanted in SCID mice.
Hu38SB19 was formulated in phosphate buffer saline, without Ca^2+ and Mg^2+, pH7.4. Hu38SB19 was administered intravenously on days 18, 21, 24, 27 after tumor implantation.

Setting [3] is: hu38SB19 40.0 mg/kg/inj IV (total 160.0).
Setting [4] is: Palmo Ara-C 22.3 mg/kg/inj SC (total 89.2).
[5] abbreviates: Palmo Ara-C 36.0 mg/kg/inj SC (total 144.0).
Where [6] appears, read: Palmo Ara-C 58.0 mg/kg/inj SC (total 232.0).

Where “and” joins values, the source holds several entries; their conditions need not be identical. Equal entries are not always repeated. Where two headings read alike, the source gives them in different places.

As to “hu38SB19: humanized 38SB19 anti-CD38 antibody; VH SEQ ID NO: 66, VL chosen from SEQ ID NOS: 62 and 64”, in data set [1] (setting [3]), the log10 cell kill was determined as 0.5, the “TFS = tumor free survivors” value was 0/6 and the “T-C = tumor growth delay” value was found to be 6.1 days. Further, the “comment (activity class)” value in data set [1] (hu38SB19 40.0 mg/kg/inj IV (total 160.0), highest dose tested, 40 mg/kg) is on record as “HDT—Inactive”. Moreover, in data set [1] (hu38SB19 40.0 mg/kg/inj IV (total 160.0), highest dose tested, listed as hu38 DB19), the “comment (activity class)” value is recorded as “not active”. Besides, in data set [2] (setting [3]), the “drug death (deaths/mice treated)” value is listed as 0/6 and the “BWC = body weight change” value is recorded as −2.1 (19).

Regarding `CCCCCCCCCCCCCCCC(=O)Nc1ccn([C@@H]2O[C@H](CO)[C@@H](O)[C@@H]2O)c(=O)n1` [Palmo Ara-C], the “comment (activity class)” value in data set [1] (setting [4]) is reported as “Active”; in data set [1] (Palmo Ara-C 58.0 mg/kg/inj SC (total 232.0), HNTD), “HNTD—highly active”. Besides, the log10 cell kill stood at 2.0 in data set [1] (setting [4]), 4.3 in data set [1] (setting [5]) and 5.4 in data set [1] (setting [6]). Also, the “TFS = tumor free survivors” value was 0/6 in data set [1] (setting [4]); “no TFS and 0/6” in data set [1] (setting [5]); 3/6 in data set [1] (setting [6]). The “T-C = tumor growth delay” value in data set [1] (setting [4]) is listed as 22.1 days; in data set [1] (setting [5]), 48.6 days; in data set [1] (setting [6]), 60.5 days. The “BWC = body weight change” value in data set [2] (setting [4]) is given as −0.5 (32); in data set [2] (setting [5]) it was −4.6 (30); in data set [2] (setting [6]) it was −6.1 (31); in data set [2] (Palmo Ara-C 96.3 mg/kg/inj SC (total 385.2)), −26.6 (31). Besides, the “highest nontoxic dose (HNTD)” value in data set [2] (Palmo Ara-C alone, SC) was 58.0 mg/kg/inj.
